Reference: US8895502B2, “β2-glycoprotein I peptide inhibitors” (Kansas State University Research Foundation, priority 2010, dated 2014)
Square brackets hold non-standard residues; d marks the D form.

Experiments:
[1] = tested on: C57Bl/6 mice; assay: Intestinal ischemia/reperfusion, mucosal injury score; format: in vivo, mouse; conditions: C57Bl/6 mice, peptide 40 μM i.v. 5 min prior to ischemia, 2 hours reperfusion
Experimental: (§1) C57Bl/6 and Rag-1^−/− mice were subjected to ischemia followed by reperfusion similar to previously described studies (Moses, T. et al., J. Leukoc. Biol. 86:971-980 (2009)). Briefly, ketamine (16 mg/kg) and xylazine (80 mg/kg) were used to anesthetize the mice. Buprenorphine (0.06 mg/kg) was then administered for pain. A midline laparotomy was performed to expose the abdominal cavity of the mice, which were then allowed to equilibrate for 30 min. Body temperature was maintained at 37° C. using a water-circulating heat pad. Placing a warm, saline moistened piece of gauze over the abdominal cavity prevented peritoneal desiccation. […] Ischemia was noted by the intestine changing from a pink color to a gray color. After 30 min of ischemia, the clamp was removed and the intestines were allowed to reperfuse for 5, 10, 15, or 120 min. […] Mice treated with the various β2-GPI peptides underwent the same procedure with i.v. administration of the peptides (40 μM) 5 min prior to artery occlusion. Peptides 296, 305, and 296Cys to Ser were dissolved in N. Saline (0.9% NaCl) and injected i.v. in 100-μL volumes. Peptides 100 and 181 were dissolved in DMSO prior to diluting 1/100 in N. Saline. Additional mice received peptides prior to Sham treatment.
Immediately after euthanasia, a 2-cm mid jejunum tissue section was immediately fixed in 10% buffered formalin, embedded in paraffin, and 8 μm sections were cut transversely and hematoxylin and eosin (H&E) stained. Mucosal injury was graded on a six-tiered scale, as described previously (Fleming, S. D. et al., J. Immunol. 169:2126-2133 (2002)). Briefly, the average damage score of the intestinal section (75-150 villi) was determined after grading each villus. […] Photomicrographs were obtained from H&E stained slides using a 20×, 0.5 Plan Fluor objective on a Nikon 80i microscope and images acquired at room temperature using a Nikon DS-5M camera with DS-L2 software.
Ischemia/reperfusion was performed on ketamine/xylazine anesthetized mice as described in Example 1 above. After 2 hours of reperfusion, the mice were euthanized and sera, liver, spleen, and 2 cm sections of the small intestine, approximately 10 cm distal to the gastroduodenal junction, were collected for histological and other analyses. Mice treated with the various β2-GPI peptides underwent the same procedure with i.v. administration of the peptides. Most studies assumed 2 mL total blood volume in a mouse and administered peptides to a final concentration of 40 μM at 5 min prior to ischemia. Dose response studies administered 1-40 μM peptide at 5 min prior to ischemia and time course studies administered 40 μM peptide at 5 min prior to ischemia, and at 15-, 30- or 60-min post-ischemia (i.e., during reperfusion).
After euthanasia, tissue sections were fixed and stained following the procedures outlined in Example 1. Mucosal injury (SMI) was also graded on a six-tiered scale, as described in Example 1.

[2] = tested on: C3; assay: Intestinal IR, C3 deposition immunohistochemistry; format: in vivo, mouse; conditions: C57Bl/6 mice, peptide infused prior to IR
Experimental: as §1
After euthanasia, an additional 2-cm intestinal section from each mouse was immediately snap frozen in O.C.T. freezing medium and 8 μm sections were placed on slides for immunohistochemistry. The C3 deposition and F4/80 expression on the tissue sections were detected by staining with a purified rat-anti-mouse C3 (Hycult Biotechnologies; Plymouth Meeting, Pa.) or F4/80 (eBioscience; San Diego, Calif.) antibody followed by a Texas-red conjugated donkey-anti-rat IgG secondary antibody (Jackson Immunoresearch). CD31 (PECAM-1) and CD106 (VCAM-1) were detected by FITC conjugated rat anti-mouse CD31 or CD106 (Biolegend; San Diego, Calif.) antibodies. Each experiment contained serial sections stained with the appropriate isotype control antibodies. All slides were mounted with ProLong Gold (Invitrogen). Images were obtained at room temperature using a Nikon Eclipse 80i microscope equipped with a CoolSnap CF camera (Photometrics) and analyzed using Metavue software (Molecular Devices). The fluorescence was semi-quantitated using Image J software (NIH) using the fluorescent area fraction after setting threshold for each experiment. The average of the isotype control was subtracted from each photo.

[3] = tested on: LTB4; assay: Intestinal IR, ex vivo LTB4 generation; format: in vivo, mouse; conditions: C57Bl/6 mice, peptide 40 μM prior to IR
Experimental: as §1
(§2) Ex vivo generation of eicosanoids by mid-jejunal tissue was determined. Immediately after collection, a 2-cm intestinal section from each mouse was minced, washed, resuspended in 37° C. oxygenated Tyrode's buffer (Sigma-Aldrich; St. Louis, Mo.), incubated at 37° C. for 20 minutes, and the supernatant collected. PGE2 and LTB4 concentrations were determined using enzyme immunoassay kits (Cayman Chemical; Ann Arbor, Mich.). IL-6 and IL-12 concentrations were determined using a Milliplex MAP immunoassay kit (Millipore) and read on a Milliplex Analyzer (Millipore). All eicosanoid and cytokine concentrations were standardized to the total tissue protein content.
(§3) Total peroxidase, LTB4, PGE2, IL-6, IL-12p40, and IL-12p70 concentrations were determined using the procedures described in Example 1.

[4] = tested on: PGE2; assay: Intestinal IR, ex vivo PGE2 generation; format: in vivo, mouse; conditions: C57Bl/6 mice, peptide 40 μM prior to IR
Experimental: C57Bl/6 and Rag-1^−/− mice were subjected to ischemia followed by reperfusion similar to previously described studies (Moses, T. et al., J. Leukoc. Biol. 86:971-980 (2009)). Briefly, ketamine (16 mg/kg) and xylazine (80 mg/kg) were used to anesthetize the mice. Buprenorphine (0.06 mg/kg) was then administered for pain. A midline laparotomy was performed to expose the abdominal cavity of the mice, which were then allowed to equilibrate for 30 min. Body temperature was maintained at 37° C. using a water-circulating heat pad. Placing a warm, saline moistened piece of gauze over the abdominal cavity prevented peritoneal desiccation. […] Ischemia was noted by the intestine changing from a pink color to a gray color. After 30 min of ischemia, the clamp was removed and the intestines were allowed to reperfuse for 5, 10, 15, or 120 min. […] Peptides 296, 305, and 296Cys to Ser were dissolved in N. Saline (0.9% NaCl) and injected i.v. in 100-μL volumes. Peptides 100 and 181 were dissolved in DMSO prior to diluting 1/100 in N. Saline. Additional mice received peptides prior to Sham treatment.
as §2, §3

[5] = tested on: thioglycollate-elicited macrophages, nitric oxide; assay: β2-GPI stimulated macrophage nitric oxide production; format: cell-based; conditions: mouse β2-GPI 10 μg/mL, peptide 40 μM, 18 hours
Experimental: C57Bl/6 mice were injected i.p. with 1 mL thioglycollate (4%) 4 days prior to peritoneal lavage. Peritoneal exudate macrophages or the B cell line, LK35.2, were seeded at 2×10^6 cells/mL in 24-well or 96-well plates. After macrophage adherence, both cell types were treated with mouse β2-GPI (10 μg/mL) with or without peptide (40 μM). Additional cells were unstimulated as a negative control or stimulated with 10 μg/mL LPS (E. coli 055B5) as a positive control. Supernatants were collected 18-20 hours after stimulation and analyzed for nitrite by Griess reagent (Hoffman & Fleming, Cell Biochem. Funct. 28:686-694 (2010)) or IL-6 by Milliplex MAP kit (Millipore) following the manufacturer's instructions using a Luminex 200 with xPONENT 3.1 and Analyst software (Millipore).

[6] = tested on: C57Bl/6 mice; assay: Intestinal ischemia/reperfusion, mucosal injury score; format: in vivo, mouse; conditions: Example 3, human β2-GPI in N. saline at 0.5-μg, 1-μg and 5-μg

Molecule: H-GNDTVMCTEQQN-NH2 [peptide 181, 17, reference compound]
- IR-induced intestinal mucosal damage (injury score) [1]: IR-induced intestinal damage similar to untreated mice

Molecule: H-SHAEVTYSS-OH (H-[dS][dH][dA][dE][dV][dT][dY][dS][dS]-OH; also: retro-inverso) [peptide Retro-inverso D-p9, 13]
- IR-induced intestinal mucosal damage (injury score) [1]: attenuated
- C3 deposition / complement activation after IR [2]: few to no C3 deposits
- IR-induced intestinal LTB4 production [3]: attenuated
- IR-induced intestinal PGE2 production [4]: attenuated

Molecule: H-SKNKEKK-NH2 [peptide p7, 11]
- IR-induced intestinal mucosal damage (injury score) [1]: attenuate actual epithelial injury more effectively
- IR-induced intestinal PGE2 production [4]: returned PGE2 concentrations to those found in Sham treated animals

Molecule: H-SSYTVEAHS-NH2 [peptide p9, 12]
- IR-induced intestinal mucosal damage (injury score) [1]: attenuated
- C3 deposition / complement activation after IR [2]: significantly less deposition
- β2-GPI-induced nitric oxide production [5]: significantly attenuated
- IR-induced intestinal LTB4 production [3]: attenuated
- IR-induced intestinal PGE2 production [4]: attenuated

Molecule: H-SSYTVEAHS-OH (H-[dS][dS][dY][dT][dV][dE][dA][dH][dS]-OH; SMILES CC(C)[C@@H](NC(=O)[C@H](NC(=O)[C@@H](Cc1ccc(O)cc1)NC(=O)[C@@H](CO)NC(=O)[C@H](N)CO)[C@H](C)O)C(=O)N[C@H](CCC(=O)O)C(=O)N[C@H](C)C(=O)N[C@H](Cc1c[nH]cn1)C(=O)N[C@H](CO)C(=O)O) [peptide D-p9, p9 synthesized with D-amino acids]
- IR-induced intestinal mucosal damage (injury score) [1]: attenuated
- IR-induced intestinal LTB4 production [3]: did not
- IR-induced intestinal PGE2 production [4]: attenuated

B1: human β2-GPI: commercially-available human β2-GPI (SEQ ID NO. 15), whole molecule (protein, listed as Homo sapiens)
chain: MISPVLILFSSFLCHVAIAGRTCPKPDDLPFSTVVPLKTFYEPGEEITYSCKPGYVSRGGMRKFICPLTGLWPINTLKCTPRVCPFAGILENGAVRYTTFEYPNTISFSCNTGFYLNGADSAKCTEEGKWSPELPVCAPIICPPPSIPTFATLRVYKPSAGNNSLYRDTAVFECLPQHAMFGNDTITCTTHGNWTKLPECREVKCPFPSRPDNGFVNYPAKPTLYYKDKATFGCHDGYSLDGPEEIECTKLGNWSAMPSCKASCKVPVKKATVVYQGERVKIQEKFKNGMLHGDKVSFFCKNKEKKCSYTEDAQCIDGTIEVPKCFKEHSSLAFWKTDASDVKPC
- IR-induced intestinal injury [6]: effective at attenuating
